Laboratory results as given in patent publication US6537797B1, “Compositions and methods useful in bioremediation of polychlorinated biphenyls” (Indiana University, Advanced Research and Technology …, priority 1999, dated 2003).

Assays:
Format in all cases: cell-based
bacterial strain SK-2 = assay: Growth substrate tests in liquid medium; settings: initial concentration 100 parts per million, except chlorobenzoate 2-3 millimolar
Method: (§1) The ability of the four isolated strains to grow on selected polychlorobiphenyls as a sole carbon source was assessed.
(§2) (All tests were conducted in a liquid medium. The initial concentration of the organic substrate was 100 parts per million, except chlorobenzoate, which was 2-3 millimolar).

bacterial strain SK-3 [1] = assay: Growth substrate tests in liquid medium; settings: initial concentration 100 parts per million, except chlorobenzoate 2-3 millimolar
Method: as §1, §2

bacterial strain SK-1 [2] = assay: Growth substrate tests in liquid medium; settings: initial concentration 100 parts per million, except chlorobenzoate 2-3 millimolar
Method: as §1, §2

bacterial strain SK-4 [3] = assay: Growth substrate tests in liquid medium; settings: initial concentration 100 parts per million, except chlorobenzoate 2-3 millimolar
Method: as §1, §2

bacterial strain SK-4 [4] = assay: Characterization of SK-4: growth on and degradation of 2,2′-DCBP and 2,4′-DCBP; settings: 1.5×10^7 cells per milliliter
Method: The same methods for determining concentrations of analytes and for the incubation of the bacterial strain with growth substrate described herein for the previous analyses were used in the experiments to characterize SK-4. The concentration of SK-4 cells in the experiments was 1.5×10^7 cells per milliliter and the concentration of 2,2′-DCBP or 2,4′-DCBP was 100 milligrams per liter. […] Ortho-substituted congeners are common degradation products of anaerobic reductive dechlorination of more highly chlorinated PCBs (PCBs comprising more than two chlorine atoms) by anaerobic bacteria.
2,2′-DCBP was supplied at a concentration of 100 milligrams per liter dissolved in heptamethyl nonane (HMN), a non-biodegradable PCB solvent. Controls contained HMN but lacked 2,2′-DCBP.

bacterial strain SK-1 [5] = assay: Growth of SK-1 on 2,3-DCBP as sole carbon source and its degradation
Method: Growth of bacterial strains SK-1 and SK-2 on 2,3-DCBP and 3,4-DCBP, respectively, as a sole carbon source was determined using direct counting and an acridine orange staining method. This method involves filtering 0.1 milliliters of culture through a 0.45 micron filter, staining the cells on the filter using a 0.01% acridine orange solution for 3 to 5 minutes, and counting cells on the filter using an epifluorescent microscope at a 1000′ magnification. SK-1+ contained 2,3-dichlorobiphenyl; SK-2+ contained 3,4-dichlorobiphenyl. Control bottles in each case were identical to experimental bottles in that they were inoculated with the cultures but they lacked the appropriate congener. The initial concentration of PCBs was 500 ppm (w/v). The cell numbers of the two isolates increased by 1.5 orders of magnitude in the presence of the DCBPs used as a growth substrate. The degradation of 2,3-DCBP by SK-1 and production of 2,3-dichlorobenzoate is depicted in FIG. 3. The degradation of 3,4-DCBP by SK-2 and production of 3,4-dichlorobenzoate is depicted in FIG. 4.
(§3) The concentrations of chlorobenzoates and dichlorobiphenyls were assessed after hexane extraction of bottles using gas chromatography analysis of the extracts with an electron capture detector. Chlorobenzoates were analyzed using standard columns after derivitization with pentafluorobenzyl bromide. Dichlorobiphenyls were analyzed using a DB-5 column (J&W Scientific, Fulsom, Calif.).
The data shown in FIGS. 2, 3 and 4 illustrates the nearly complete disappearance of both 2,3-DCBP (0.38 mM initial concentration, FIG. 3) and 3,4-DCBP (0.3 mM initial concentration, FIG. 4) within 10 days of incubation. Duplicate bottles were used and error bars of the pictures represent a standard deviation. Controls contained DCBPs but lacked inoculum. DCBPs were supplied in the bottles using the non-biodegradable carrier heptamethylnonane (HMN).

[6] = system: consortia of bacterial strains from PCB-contaminated tertiary lagoon sludge; assay: Degradation of selected PCB congeners in aerobic enrichment cultures; settings: 100 ppm (w/v) mixture of five PCB congeners, with or without biphenyl cosubstrate; hexane extraction 45 days after inoculation, GC
Source text: A consortia of bacterial strains was isolated from tertiary lagoon sludge that was contaminated with PCBs for over twenty five years. The sludge was collected from the Winston-Thomas sewage treatment plant in Bloomington, Ind. PCB-degrading strains were enriched using a minimal medium comprising a 100 ppm (w/v) mixture of the following five PCB congeners as the carbon source: 2,3-dichlorobiphenyl (DCBP), 2,4,4′-trichlorobiphenyl (TCBP), 2,4,6-trichlorobiphenyl, 2,2′,5,5′-tetrachlorobiphenyl, and 2,2′,4,4′,5,5′-hexachlorobiphenyl. Biphenyl was also added to the medium in some samples as an additional carbon source to stimulate the cometabolism of biphenyl and the PCBs. About 30-35 milliliters of the medium was inoculated with 5-10 milliliters of PCB-contaminated sludge and incubated in 160-mL serum bottles sealed with Teflon-coated stoppers. The bottles were incubated horizontally on a shaker table at room temperature. The headspace in the bottles was purged with air once a week to maintain aerobic conditions. Every 4-6 weeks, 10% of the culture was transferred to fresh medium. […] The concentrations of the PCB congeners were determined by extracting bottles with hexane 45 days after inoculation (a single bottle extraction), and analyzing hexane extracts by gas chromatography using a DB-5 column (J&W Scientific, Folsum, Calif.) and an electron capture detector. The results from this analysis are depicted in FIG. 1.

bacterial strain SK-3 [7] = assay: Characterization of SK-3: growth on and degradation of chlorobiphenyls and chlorobenzoates; settings: for Chloride and chlorobenzoic acid (CBA) formed on degradation by SK-3: 88 hours, 23° C., aerobic, shaker table
Method: as §3
The results from this experiment are depicted in FIG. 5.
The growth of SK-3 on 4-chlorobiphenyl (4-CB) was compared with growth on its non-chlorinated form, biphenyl. […] The results from this experiment are depicted in FIG. 6. The concentration of chloride ion was determined using ion chromatography on a standard Dionex ion chromatography column. The concentration of 4-CB was assessed after hexane extraction of bottles by analyzing the hexane extracts using gas chromatography on a DB-5 column (J&W Scientific, Fulsom, Calif.) and an electron capture detector.
The growth of SK-3 on chlorobenzoates was assessed. […] The results from this experiment are depicted in FIG. 7.
The degradation of three different monochlorobiphenyls, (2-CB, 3-CB, and 4-CB) by SK-3 was assessed at 23° C. under aerobic conditions on a shaker table. After incubation of SK-3 with the selected monochlorobiphenyl for 88 hours, the concentrations of chloride and the corresponding chlorobenzoic acids (CBA) was assessed as described herein. The results from this experiment are depicted in FIG. 8.
The growth of SK-3 on dichloro-biphenyls was also assessed. […] The results of this experiment are depicted in FIG. 9.

[8] = substrate in heptamethyl nonane

Compound	Growth of SK-2 on the substrate as sole carbon source (bacterial strain SK-2)	Growth of SK-3 on the substrate as sole carbon source (bacterial strain SK-3 [1])	Growth of SK-1 on the substrate as sole carbon source (bacterial strain SK-1 [2])	Growth of SK-4 on the substrate as sole carbon source (bacterial strain SK-4 [3])	also measured
2,3,4-trichlorobenzoate	No	No	No	–	–
Clc1ccccc1-c1cccc(Cl)c1Cl [2,2′,3-TCBP]	No	No	No	No	–
Clc1ccc(Cl)c(-c2ccccc2Cl)c1 [2,2′,5-TCBP]	–	–	–	No	–
Clc1ccccc1-c1ccccc1Cl [2,2′-DCBP, 2,2′-dichlorobiphenyl]	No	No	No	exhibited growth and Yes	Growth of SK-4 on the substrate as sole carbon source (bacterial strain SK-4 [4]; 100 milligrams per liter): growth; Chloride release on degradation by SK-4 (bacterial strain SK-4 [4]; [8]): stoichiometric release of chloride; Chlorobenzoate production on degradation by SK-4 (bacterial strain SK-4 [4]; [8]): completely transformed into 2-CBA
Clc1cccc(-c2ccccc2)c1Cl [2,3-DCBP, 2,3-dichlorobiphenyl]	No	No	exhibited growth and Yes	No	Time to nearly complete disappearance (bacterial strain SK-1 [5]; SK-1, 0.38 mM initial concentration, supplied in heptamethylnonane): ≤ 10 days; Increase of cell numbers in the presence of the DCBP as growth substrate (bacterial strain SK-1 [5]; SK-1, initial concentration 500 ppm (w/v), acridine orange direct counting): 1.5 orders of magnitude; Degradation of PCB congener in aerobic enrichment cultures [6]: degraded in bottles which lacked a cometabolic substrate
O=C(O)c1cccc(Cl)c1Cl [2,3-dichlorobenzoate]	No	No	No	No	Production of chlorobenzoate from 2,3-DCBP by SK-1 (bacterial strain SK-1 [5]; 0.38 mM 2,3-DCBP initial concentration): almost stoichiometric
Clc1ccc(-c2ccc(Cl)cc2Cl)cc1 [2,4,4′-TCBP, 2,4,4′-trichlorobiphenyl]	–	–	–	–	Degradation of PCB congener in aerobic enrichment cultures [6]: degraded only in the bottles which contained biphenyl as a cosubstrate
Clc1cc(Cl)c(-c2ccccc2)c(Cl)c1 [2,4,6-TCBP, 2,4,6-trichlorobiphenyl]	–	–	–	–	Degradation of PCB congener in aerobic enrichment cultures [6]: degraded only in the bottles which contained biphenyl as a cosubstrate
Clc1ccc(Cl)c(-c2ccccc2)c1 [2,5-DCBP]	No	No	Likely	No	–
O=C(O)c1ccccc1Cl [2-chlorobenzoate]	No	No	No	No	–
Clc1ccccc1-c1ccccc1 [2-chlorobiphenyl]	Yes	Yes	Yes	Yes	Chloride and chlorobenzoic acid (CBA) formed on degradation by SK-3 (bacterial strain SK-3 [7]): partial release of chloride and production of 2-CBA
Clc1ccc(-c2ccccc2Cl)cc1Cl [2′,3,4-TCBP]	No	No	No	No	–
Clc1cccc(-c2cccc(Cl)c2)c1 [3,3′-DCBP]	–	No	–	No	–
Clc1cc(Cl)cc(-c2ccccc2)c1 [3,5-DCBP]	No	No	No	No	–
O=C(O)c1cccc(Cl)c1 [3-chlorobenzoate]	No	No	No	No	–
Clc1cccc(-c2ccccc2)c1 [3-chlorobiphenyl]	Yes	Yes	Yes	Yes	Chloride and chlorobenzoic acid (CBA) formed on degradation by SK-3 (bacterial strain SK-3 [7]): transformed 3-CB to 3-CBA without producing chloride
Clc1ccc(-c2ccc(Cl)cc2)cc1 [4,4′-DCBP]	–	No	–	No	–
Clc1ccc(-c2ccccc2)cc1 [4-chlorobiphenyl]	Yes	Yes	Yes	Yes	Chloride and chlorobenzoic acid (CBA) formed on degradation by SK-3 (bacterial strain SK-3 [7]): did not generate 4-CBA; Release of chloride during degradation by SK-3 (bacterial strain SK-3 [7]; chloride by ion chromatography): stoichiometric production of chloride
O=C(O)c1ccccc1 [Benzoate]	Yes	Yes	Yes	Yes	–
c1ccc(-c2ccccc2)cc1 [Biphenyl]	Yes	Yes	Yes	Yes	–
O=C(O)CCl [Chloroacetate]	No	Yes	Yes	Yes	–
c1ccc2ccccc2c1 [Naphthalene]	No	No	No	No	–
Oc1ccccc1 [Phenol]	No	Yes	Yes	Yes	–
